Consider 31 compounds from patent publication US7951802B2, “Use of 7-azaindoles in the inhibition of c-Jun N-terminal kinase” (Eisai R&D Management Co., Ltd., priority 2007, dated 2011).

As usually defined, the IC50 is the concentration at which inhibition is half-maximal.

Sequence of JNK3 (P53779 whole entry, species assumed): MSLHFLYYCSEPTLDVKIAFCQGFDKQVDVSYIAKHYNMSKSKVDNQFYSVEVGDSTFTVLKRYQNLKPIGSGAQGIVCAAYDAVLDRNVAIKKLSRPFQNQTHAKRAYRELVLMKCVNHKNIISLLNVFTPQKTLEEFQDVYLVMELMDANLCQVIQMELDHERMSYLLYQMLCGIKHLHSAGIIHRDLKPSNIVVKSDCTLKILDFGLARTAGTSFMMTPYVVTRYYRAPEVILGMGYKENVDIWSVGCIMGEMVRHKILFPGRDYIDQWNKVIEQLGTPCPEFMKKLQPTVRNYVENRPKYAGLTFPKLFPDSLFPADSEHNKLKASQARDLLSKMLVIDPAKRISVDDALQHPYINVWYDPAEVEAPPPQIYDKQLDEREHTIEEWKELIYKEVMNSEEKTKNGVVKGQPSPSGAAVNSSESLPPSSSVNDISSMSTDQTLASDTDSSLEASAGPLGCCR

One experiment addresses JNK3 (Homo sapiens, UniProt P53779). Put plainly: JNK3 SPA assay (phosphorylation of GST-c-Jun). Format: biochemical. Conditions: 3.33 μM ATP, GST-c-Jun substrate, read-out: IC50 against JNK3. The procedure: JNK1, JNK2, JNK3—SPA Assay
JNK1, JNK2, JNK3—SPA Assay • 1. Compound is dissolved in DMSO to a convenient concentration and this is diluted in 10% DMSO to a five times concentrate of the desired starting concentration (frequently 1:100). • 2. 10 μl of 500 mM EDTA is added to alternative wells of the Opti-plate row, which will receive kinase reaction plus DMSO. This creates the negative control. • 3. For the JNK2 and JNK3 assay, compounds are prepared in six 2-fold dilutions with water and each concentration is tested in duplicate. For the JNK1 assay compounds are prepared in four 5-fold dilutions with water which are tested in triplicate. Controls are treated identically. • 4. 20 μl per well of each compound concentration is transferred to an Opti-plate, in duplicate. • 5. 30 μl (JNK2/3 SPA) or 50 μl (JNK1 SPA) of substrate solution (25 mM HEPES pH 7.5, 10 mM magnesium acetate with 3.33 μM ATP (JNK2/3) or 2 μM ATP (JNK1), approximately 7.5 kBq [γ-^33P] ATP, GST-c-Jun, in water) is added to each well. • 6. 50 μl (JNK2/3 SPA) or 30 μl (JNK1 SPA) of kinase solution (JNK in 25 mM HEPES pH 7.5, 10 mM Mg Acetate) is added to each well.
• 7. The plate is incubated for 30 minutes at room temperature. • 8. 100 μl of bead/stop solution is added to each well (5 mg/ml glutathione-PVT-SPA beads, 40 mM ATP in PBS). • 9. Plates are sealed and incubated for 30 minutes at room temperature, centrifuged for 10 minutes at 2500 g and counted. • 10. The IC50 values are calculated as the concentration of the compound being tested at which the phosphorylation of c-Jun is decreased to 50% of the control value.
In the case of `CN1CCC(c2nc(-c3c[nH]c4ncc(C5=CCC(N6CCOCC6)CC5)cc34)cs2)CC1` (stereo not shown) [Compound I-100, 4-(4-(3-(2-(1-methylpiperidin-4-yl)thiazol-4-yl)-1H-pyrrolo[2,3-b]pyridin-5-yl)cyclohex-3-enyl)morpholine], the IC50 was determined as 0.447 µM. The same measure, in the same setting: with `CN1CCC(c2nc(-c3c[nH]c4ncc(C5=CCC(N6CCCOCC6)CC5)cc34)cs2)CC1` (stereo not shown) [Compound I-101, 4-(4-(3-(2-(1-methylpiperidin-4-yl)thiazol-4-yl)-1H-pyrrolo[2,3-b]pyridin-5-yl)cyclohex-3-enyl)-1,4-oxazepane] the figure was 0.363 µM; with `CN1CCC(c2nc(-c3c[nH]c4ncc([C@H]5CC[C@H](N6CCCOCC6)CC5)cc34)cs2)CC1` [Compound I-102, 4-((1r,4r)-4-(3-(2-(1-methylpiperidin-4-yl)thiazol-4-yl)-1H-pyrrolo[2,3-b]pyridin-5-yl)cyclohexyl)-1,4-oxazepane], 0.55 µM.

As to `CN1CCCC1c1nc(-c2c[nH]c3ncc([C@H]4CC[C@H](N5CCOCC5)CC4)cc23)cs1` (stereo partly shown) [Compound I-107, 4-((1r,4r)-4-(3-(2-(1-methylpyrrolidin-2-yl)thiazol-4-yl)-1H-pyrrolo[2,3-b]pyridin-5-yl)cyclohexyl)morpholine], the IC50 turned out to be 1.26 µM. Same read-out and setting: with `CN1CCCC1c1nc(-c2c[nH]c3ncc([C@H]4CC[C@@H](N5CCOCC5)CC4)cc23)cs1` (stereo partly shown) [Compound I-108, 4-((1s,4s)-4-(3-(2-(1-methylpyrrolidin-2-yl)thiazol-4-yl)-1H-pyrrolo[2,3-b]pyridin-5-yl)cyclohexyl)morpholine] the figure was 1.23 µM; with `CN1CCN([C@H]2CC[C@H](c3cnc4[nH]cc(-c5csc(C6CCCN6C)n5)c4c3)CC2)CC1` (stereo partly shown) [Compound I-109, 4-(5-((1r,4r)-4-(4-methylpiperazin-1-yl)cyclohexyl)-1H-pyrrolo[2,3-b]pyridin-3-yl)-2-(1-methylpyrrolidin-2-yl)thiazole], 1.74 µM; with `CN1CCN([C@H]2CC[C@@H](c3cnc4[nH]cc(-c5csc(C6CCCN6C)n5)c4c3)CC2)CC1` (stereo partly shown) [Compound I-110, 4-(5-((1s,4s)-4-(4-methylpiperazin-1-yl)cyclohexyl)-1H-pyrrolo[2,3-b]pyridin-3-yl)-2-(1-methylpyrrolidin-2-yl)thiazole], greater than 2 µM. On to `CN1CCCC1c1nc(-c2c[nH]c3ncc([C@H]4CC[C@H](N5CCCC5)CC4)cc23)cs1` (stereo partly shown) [Compound I-111, 2-(1-methylpyrrolidin-2-yl)-4-(5-((1r,4r)-4-(pyrrolidin-1-yl)cyclohexyl)-1H-pyrrolo[2,3-b]pyridin-3-yl)thiazole], for which the IC50 is 1.74 µM. Regarding `CN1CCCC1c1nc(-c2c[nH]c3ncc([C@H]4CC[C@H](N5CCCOCC5)CC4)cc23)cs1` (stereo partly shown) [Compound I-113, 4-((1r,4r)-4-(3-(2-(1-methylpyrrolidin-2-yl)thiazol-4-yl)-1H-pyrrolo[2,3-b]pyridin-5-yl)cyclohexyl)-1,4-oxazepane], the IC50 worked out at 1.23 µM. The same measure, in the same setting: under `CN1CCCC1c1nc(-c2c[nH]c3ncc([C@H]4CC[C@@H](N5CCCOCC5)CC4)cc23)cs1` (stereo partly shown) [Compound I-114, 4-((1s,4s)-4-(3-(2-(1-methylpyrrolidin-2-yl)thiazol-4-yl)-1H-pyrrolo[2,3-b]pyridin-5-yl)cyclohexyl)-1,4-oxazepane] stands 1.44 µM.

With `c1nc(-c2c[nH]c3ncc([C@H]4CC[C@H](N5CCCOCC5)CC4)cc23)cs1` [Compound I-116, 4-((1r,4r)-4-(3-(thiazol-4-yl)-1H-pyrrolo[2,3-b]pyridin-5-yl)cyclohexyl)-1,4-oxazepane], the 50% inhibitory concentration (IC50) was greater than 2 µM. On the same count and under the same terms, under `Cc1csc(-c2c[nH]c3ncc([C@H]4CC[C@H](N5CCCOCC5)CC4)cc23)n1` [Compound I-117, 4-((1r,4r)-4-(3-(4-methylthiazol-2-yl)-1H-pyrrolo[2,3-b]pyridin-5-yl)cyclohexyl)-1,4-oxazepane] stands 0.832 µM; under `c1ncc(-c2c[nH]c3ncc([C@H]4CC[C@H](N5CCCOCC5)CC4)cc23)s1` [Compound I-118, 4-((1r,4r)-4-(3-(thiazol-5-yl)-1H-pyrrolo[2,3-b]pyridin-5-yl)cyclohexyl)-1,4-oxazepane], 0.219 µM. For the compound `c1csc(-c2c[nH]c3ncc([C@H]4CC[C@H](N5CCCOCC5)CC4)cc23)n1` [Compound I-119, 4-((1r,4r)-4-(3-(thiazol-2-yl)-1H-pyrrolo[2,3-b]pyridin-5-yl)cyclohexyl)-1,4-oxazepane], the IC50 is 1.05 µM.

As for `COc1nc(-c2c[nH]c3ncc([C@H]4CC[C@H](N5CCOCC5)CC4)cc23)cs1` [Compound I-120, 4-((1r,4r)-4-(3-(2-methoxythiazol-4-yl)-1H-pyrrolo[2,3-b]pyridin-5-yl)cyclohexyl)morpholine], the IC50 was 0.479 µM. Same read-out and setting: under `Cc1cnc(-c2c[nH]c3ncc([C@H]4CC[C@H](N5CCCOCC5)CC4)cc23)s1` [Compound I-121, 3-(5-methyl-1,3-thiazol-2-yl)-5-[trans-4-(1,4-oxazepan-4-yl)cyclohexyl]-1H-pyrrolo[2,3-b]pyridine] stands 1.45 µM; under `c1sc(N2CCCC2)nc1-c1c[nH]c2ncc([C@H]3CC[C@H](N4CCCOCC4)CC3)cc12` [Compound I-122, 5-[trans-4-(1,4-oxazepan-4-yl)cyclohexyl]-3-(2-pyrrolidin-1-yl-1,3-thiazol-4-yl)-1H-pyrrolo[2,3-b]pyridine], 1.29 µM; under `Cc1nc(-c2c[nH]c3ncc([C@H]4CC[C@H](N5CCCOCC5)CC4)cc23)sc1C` [Compound I-123, 3-(4,5-dimethyl-1,3-thiazol-2-yl)-5-[trans-4-(1,4-oxazepan-4-yl)cyclohexyl]-1H-pyrrolo[2,3-b]pyridine], 1.07 µM. The same measure, in the same setting: with `COc1nc(-c2c[nH]c3ncc([C@H]4CC[C@H](N5CCCOCC5)CC4)cc23)cs1` [Compound I-124, 3-(2-methoxy-1,3-thiazol-4-yl)-5-[trans-4-(1,4-oxazepan-4-yl)cyclohexyl]-1H-pyrrolo[2,3-b]pyridine] the figure was 0.52 µM; with `CCOc1nc(-c2c[nH]c3ncc([C@H]4CC[C@H](N5CCCOCC5)CC4)cc23)cs1` [Compound I-125, 3-(2-ethoxy-1,3-thiazol-4-yl)-5-[trans-4-(1,4-oxazepan-4-yl)cyclohexyl]-1H-pyrrolo[2,3-b]pyridine], 0.52 µM.

For the next experiment, the system named is panel of 100 kinases. Put plainly: Selectivity against a panel of kinases (Upstate/Millipore), expressed as Gini coefficient. Format: biochemical. Conditions: reference compounds with aromatic C(5) group, calculated from Table 4 data, concentration not given. The procedure:
Selectivity of Compounds (I) Against a Panel of Kinases
Inhibitory potency of compound (I-8) and (I-60) at a concentration of 1 micromolar and (I-69) and (I-70) at a concentration of 5 micromolar with ATP concentration of 10 micromolar was determined at Upstate/Millipore against a panel of 100 kinases representing all major families within the kinome. The results are presented in Table 3 and are expressed as percentage of remaining activity.
For comparison purposes Table 4 contains the relevant inhibitory data for reference compounds A-L containing a (hetero)aromatic ring at C(5) of the 7-azaindole system.
Selectivity Expressed as Gini Coefficient
Selectivity of compounds according to the present invention and reference compounds expressed as Gini coefficient (J. Med. Chem. 2007, 50, 5773-5779) is shown in Table 5. The individual Gini coefficients have been calculated using the data in Tables 3 and 4. Value Gini=0 corresponds to a totally non-selective compound; value Gini=1 reflects perfect selectivity (inhibition of a single target only)
Regarding `CN(C)c1ccc(-c2cnc3[nH]cc(-c4cn[nH]c4)c3c2)cc1` [A], the “Selectivity expressed as Gini coefficient” value (“Selectivity expressed” for short) is 0.3368. On the same count and under the same terms, with `Cn1cc(-c2c[nH]c3ncc(-c4ccc(N5CCOCC5)cc4)cc23)cn1` [B] the figure was 0.3920.

With `c1nc2[nH]cc(-c3cn[nH]c3)c2cc1-c1csc(C2CCNCC2)n1` [C], the “Selectivity expressed” value was 0.4129. On the same count and under the same terms, under `CN1CCN(c2ccc(-c3cnc4[nH]cc(-c5csc(C(=O)N6CCCCC6)n5)c4c3)cc2)CC1` [D] stands 0.2705. In the case of `CN1CCC(c2csc(-c3cnc4[nH]cc(-c5cnn(C)c5)c4c3)n2)CC1` [E], the “Selectivity expressed” value is reported as 0.3757. On to `CC(C)Cn1cc(-c2cnc3[nH]cc(-c4cnn(C)c4)c3c2)cn1` [F], for which the “Selectivity expressed” value is reported as 0.3777. Still for that read-out and setting: under `CN(C)C(=O)c1nc(-c2c[nH]c3ncc(-c4ccccc4)cc23)cs1` [G] stands 0.3501; under `CN1CCN(c2nc(-c3c[nH]c4ncc(-c5ccccc5)cc34)cs2)CC1` [H], 0.4917. The same measure, in the same setting: under `CN1CCN(C(=O)c2nc(-c3c[nH]c4ncc(-c5ccc(N6CCN(C)CC6)cc5)cc34)cs2)CC1` [J] stands 0.3286; under `O=C(c1nc(-c2c[nH]c3ncc(-c4ccccc4)cc23)cs1)N1CCOCC1` [K], 0.2968; under `c1ncc(-c2c[nH]c3ncc(-c4ccc(N5CCOCC5)cc4)cc23)s1` [L], 0.3642.
